Test results reported in US9090617B1, “Agonists of Src homology-2 containing protein tyrosine phosphatase-1 and treatment methods using the same” (National Taiwan University, priority 2011, dated 2015).

Legend:
[1] = system: p-STAT3, cyclin D1, survivin, Mc1-1; test: Western blot of STAT3-related proteins in HCC cells; assay type: cell-based; details: HCC cells, 24 h
Method: Cells were treated with various compounds at 5 and 10 μM for 24 h. Cell lysates were analyzed by western blot.
HCC cells treated with SC-43 (10 μM for 24 h) were collected with RIPA lysis buffer. Antibodies for immunoblotting such as cyclin D1 was purchased from Santa Cruz Biotechnology. Other antibodies such as survivin, phospho-STAT3 (Tyr705), STAT3, Mc1-1, SOCS1, and SOCS3 were from Cell Signaling.

Huh-7 xenograft tumor = test: Huh-7 xenograft with SC-59 or sorafenib and radiation; assay type: in vivo, mice
Method: (A) The effects of SC-59 and radiation on tumor growth. Each mouse was inoculated subcutaneously in the right leg with […] Huh-7 cells suspended in Matrigel. When the tumor reached a volume of 400-600 mm3, mice received vehicle, 5 Gy radiation (one fraction per day) for 4 days, or 10 mg/kg SC-59 p.o. once daily, or a combination for the duration of the study. The data points indicate the mean values (n=6) and the bars indicate the standard error. There were significant differences between the combined treatment group and the vehicle control group (*, P<0.05, **, P<0.01). (B) Left, the expression of P-STAT3 in the Huh-7 tumors was analyzed by western blot. Right, quantified data for p-STAT3 to STAT3. (C) The activity of SHP-1 in Huh-7 tumors. Values are means±SD, *, P<0.05. (D) Body weight of mice after SC-59 and RT treatment. […] The data points indicate the mean values (n=6) and the bars indicate the standard error. […] (H) Body weight of mice treated with vehicle, RT, sorafenib, and combination.
To further elucidate the molecular events responsible for this synergistic effect, we examined the expression level of p-STAT3 in the tumor extract.

SHP-1 [2] = biological target: T1, SHP-1 (Homo sapiens, UniProt P29350); test: SHP-1 activity in treated HCC cells (tyrosine phosphatase assay kit); assay type: cell-based; design: endogenous in cells; details: SK-Hep1 cells
T1 sequence (P29350 whole entry): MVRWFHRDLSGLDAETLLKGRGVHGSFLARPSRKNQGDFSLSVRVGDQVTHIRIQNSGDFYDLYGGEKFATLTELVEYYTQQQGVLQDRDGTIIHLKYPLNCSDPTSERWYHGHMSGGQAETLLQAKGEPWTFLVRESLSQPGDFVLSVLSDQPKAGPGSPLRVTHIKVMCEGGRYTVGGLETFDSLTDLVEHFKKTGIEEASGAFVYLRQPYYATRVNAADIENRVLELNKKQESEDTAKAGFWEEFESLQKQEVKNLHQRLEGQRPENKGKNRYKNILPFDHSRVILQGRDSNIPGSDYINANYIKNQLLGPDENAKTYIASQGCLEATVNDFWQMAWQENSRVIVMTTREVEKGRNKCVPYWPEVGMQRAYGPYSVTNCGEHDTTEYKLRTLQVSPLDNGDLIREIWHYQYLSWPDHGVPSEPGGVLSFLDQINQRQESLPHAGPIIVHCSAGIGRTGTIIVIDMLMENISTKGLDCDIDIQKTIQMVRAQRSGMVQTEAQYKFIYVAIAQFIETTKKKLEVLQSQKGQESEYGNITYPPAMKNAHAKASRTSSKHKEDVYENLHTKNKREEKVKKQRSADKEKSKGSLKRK
Text: The RediPlate 96 EnzChek® Tyrosine Phosphatase Assay Kit (R-22067) was used for SHP-1 activity assay (Molecular Probes, Carlsbad, Calif.). The Raf-1 kinase cascade assay kit (Upstate-Millipore, Billerica, Mass.) was used to examine the Raf-1 kinase activity. The JAK2 kinase activity kit was purchased from Reaction Biology Corp. (Malvern, Pa.).

SHP-1 [3] = biological target: T1, SHP-1; test: Phosphatase activity of SHP-1 immunoprecipitated from PLC5 cells, incubated with compound in vitro; assay type: biochemical; design: PLC5 protein extract was incubated with anti-SHP-1 antibody in immunoprecipitation buffer overnight; endogenous in cells; host or cells: PLC5 (PLC/PRF/5); details: SHP-1-containing PLC5 extract, 10 or 100 nmol/L, 30 min, 4° C.
Method: PLC5 protein extract was incubated with anti-SHP-1 antibody in immunoprecipitation buffer overnight. Protein G Sepharose 4 Fast flow (GE Healthcare Bio-Science) was added to each sample, followed by incubation for 3 hours at 4° C. with rotation. […] RediPlate 96 EnzChek Tyrosine Phosphatase Assay kit (R-22067) was used for SHP-1 activity assay (Molecular Probes).

VEGFR1 = biological target: T2, VEGFR1 (Homo sapiens, UniProt P17948); test: VEGFR1 activity in HUVEC cells; assay type: cell-based; details: 24 h
T2 construct: we tested the effect of SC-49 on the activity of VEGFR1 in HUVEC cells; endogenous in cells; host or cells: HUVEC
T2 sequence (P17948 27-1338): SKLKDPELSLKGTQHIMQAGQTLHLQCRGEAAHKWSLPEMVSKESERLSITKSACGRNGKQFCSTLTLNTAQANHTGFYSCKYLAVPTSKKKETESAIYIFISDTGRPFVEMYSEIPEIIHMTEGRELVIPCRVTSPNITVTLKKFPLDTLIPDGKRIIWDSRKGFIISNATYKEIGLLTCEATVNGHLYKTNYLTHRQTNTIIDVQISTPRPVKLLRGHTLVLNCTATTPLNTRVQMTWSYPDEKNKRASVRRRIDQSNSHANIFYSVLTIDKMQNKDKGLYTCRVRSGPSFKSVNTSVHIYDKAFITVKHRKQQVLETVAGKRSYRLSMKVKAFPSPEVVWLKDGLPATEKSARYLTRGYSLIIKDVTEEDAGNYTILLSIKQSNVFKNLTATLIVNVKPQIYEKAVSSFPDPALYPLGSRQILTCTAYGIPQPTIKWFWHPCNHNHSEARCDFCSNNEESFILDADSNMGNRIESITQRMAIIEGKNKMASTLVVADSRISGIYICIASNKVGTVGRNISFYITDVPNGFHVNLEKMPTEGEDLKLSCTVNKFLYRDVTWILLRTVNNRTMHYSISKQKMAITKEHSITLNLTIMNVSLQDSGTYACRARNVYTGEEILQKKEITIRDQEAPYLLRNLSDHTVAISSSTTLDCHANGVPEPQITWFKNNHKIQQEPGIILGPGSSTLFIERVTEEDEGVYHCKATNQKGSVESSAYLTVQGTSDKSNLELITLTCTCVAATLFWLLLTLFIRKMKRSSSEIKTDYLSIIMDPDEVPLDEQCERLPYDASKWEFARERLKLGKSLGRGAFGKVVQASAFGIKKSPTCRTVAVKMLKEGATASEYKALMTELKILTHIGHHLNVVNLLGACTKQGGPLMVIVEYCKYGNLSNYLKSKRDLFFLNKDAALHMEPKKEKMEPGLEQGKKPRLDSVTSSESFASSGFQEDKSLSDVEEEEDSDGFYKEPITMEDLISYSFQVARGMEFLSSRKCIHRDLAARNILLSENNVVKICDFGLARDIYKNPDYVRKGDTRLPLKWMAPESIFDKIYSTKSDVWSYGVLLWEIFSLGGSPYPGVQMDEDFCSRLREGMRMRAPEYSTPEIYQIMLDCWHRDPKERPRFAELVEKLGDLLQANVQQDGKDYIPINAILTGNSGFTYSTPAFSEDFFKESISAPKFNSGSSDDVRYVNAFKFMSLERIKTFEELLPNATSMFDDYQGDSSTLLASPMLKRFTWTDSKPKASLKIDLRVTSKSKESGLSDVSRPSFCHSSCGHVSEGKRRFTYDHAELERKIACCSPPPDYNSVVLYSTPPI
Text: (§1) To further investigate the effect of SC-49 on angiogenesis, we tested the effect of SC-49 on the activity of VEGFR1 in HUVEC cells.

p-STAT1 and p-STAT5 = test: Effect on p-STAT1 and p-STAT5; assay type: cell-based; details: indicated doses, 24 h
Text: as §1

Huh-7 tumors = system: Huh-7 tumors
Method: Male NCr athymic nude mice (5-7 weeks of age) were obtained from the National Laboratory Animal Center (Taipei, Taiwan). All experimental procedures using these mice were performed in accordance with protocols approved by National Taiwan University. […] Controls received vehicle (Chen K F et al. Cancer Res. 2008; 68:6698-6707).

HCC cells = test: Apoptosis analysis by flow cytometry (sub-G1); assay type: cell-based; details: HCC cells, 24 h
Summary of the method: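 HCC cells treated with compounds, harvested, fixed in 75% ethanol and stained with 20 ug/ml propidium iodide, 30 min at 37° C in the dark. Sub-G1 population measured by flow cytometry as apoptotic fraction; mean ± SD.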

Row | Structure (SMILES) | p-STAT3 and STAT3-related proteins (Western blot) [1] | tumor growth with radiotherapy combination (Huh-7 xenograft tumor; 10 mg/kg p.o. once daily plus 5 Gy radiation for 4 days) | SHP-1 phosphatase activity in tumor samples (Huh-7 xenograft tumor; Huh-7 tumors, 10 mg/kg p.o.) | p-STAT3 in treated tumor samples (Huh-7 xenograft tumor; Huh-7 tumors, 10 mg/kg p.o.) | body weight (Huh-7 xenograft tumor; Huh-7 xenograft, 10 mg/kg p.o.) | phosphatase activity of SHP-1 in cells (SHP-1 [2]) | phosphatase activity of SHP-1 in vitro (SHP-1 [3]) | activity of VEGFR1 (VEGFR1) | p-STAT1 and p-STAT5 (p-STAT1 and p-STAT5) | Huh-7 tumor size / growth versus control (Huh-7 tumors; 10 mg/kg/day orally) | body weight or toxicity (Huh-7 tumors; mouse, in vivo, po, 10 mg/kg/day) | SHP-1 activity in Huh-7 tumors (Huh-7 tumors; tumor extract) | p-STAT3 in Huh-7 tumors (Huh-7 tumors; tumor extract, Western blot) | apoptosis (sub-G1) (HCC cells)
1 | Cc1ccc(NC(=O)Nc2ccc(Cl)c(C(F)(F)F)c2)cc1Oc1ccc(C#N)cc1 [SC-59, 1-(4-chloro-3-(trifluoromethyl)phenyl)-3-(3-(4-cyanophenoxy)-4-methylphenyl) urea] | downregulated phospho-STAT3 (p-STAT3) at tyrosine 705 along with its downstream molecules | displayed significant tumor growth inhibition compared to radiotherapy or SC-59 alone | induction of SHP-1 phosphatase activity was observed | resulted in clear inhibition of p-STAT3 | no significant difference in body weight | significantly increased the phosphatase activity of SHP-1 in SK-Hep1 cells | – | – | – | – | – | – | – | –
2 | N#Cc1ccc(Oc2ccc(CNC(=O)Nc3ccc(Cl)c(C(F)(F)F)c3)cc2)cc1 [SC-49, 1-(4-chloro-3-(trifluoromethyl)phenyl)-3-(4-(4-cyanophenoxyl)benzyl)urea] | – | – | – | – | – | – | increase phosphatase activity of SHP-1 in vitro | did not affect the activity of VEGFR1 in HUVEC cells | down-regulated both p-STAT1 and p-STAT5 in a dose dependent manner | significantly reduced the growth of the Huh-7 tumour | stable body weights | enhanced the activity of SHP-1 in Huh-7 tumours | down-regulated p-STAT3 in Huh-7 tumours | induced more apoptotic cell death than sorafenib
